Experimental findings from patent US6410577B1, “Substituted 8,8a-dihydro-3ah-indeno[1,2-d]thiazoles, processes for their preparation and their use as medicaments” (Aventis Pharma Deutschland GmbH, priority 2000, dated 2002) are described below.

The test system of this assay is female NMRI mice. Put plainly: Anorectic action: milk consumption of fasted mice after oral administration. It is filed as in vivo, mouse. The protocol: The efficacy of the compounds was tested as follows:
The anorectic action was tested on female NMRI mice. After withdrawal of food for 24 hours, a test preparation of the invention was administered via a stomach tube. Kept individually and with free access to drinking water, the animals were offered evaporated milk 30 minutes after the administration of the preparation. The consumption of evaporated milk was determined half-hourly for 1.5 hours and the general condition of the animals was observed. The measured milk consumption was compared with that of untreated control animals.

SMILES strings stand for the structures.

`OC1c2cc(Cl)ccc2C2(O)N=C(c3ccccc3)SC12` (centres unmarked) [Example 1, 6-Chloro-2-phenyl-8,8a-dihydroindeno[1,2-d]thiazole-3a,8-diol]: the “cumulated milk consumption of the treated animals” value (food withdrawn for 24 hours, oral dose 30 mg/kg via stomach tube, evaporated milk offered 30 minutes after administration, consumption determined half-hourly for 1.5 hours) is reported as 5/1.06 ml. In addition, the “Reduction of the cumulated milk consumption in % of the control” value (oral dose 30 mg/kg, compared to untreated control animals, 1.5 hours) was found to be 31%.
